Test results taken from publication PMC7864192 (Cancers, 2021).
pIC50: −log10 of the molar value. Like-named read-outs stand apart in the source and are kept apart here.

Experiments:
AGCT cell lines = assay: Cell viability drug screen (72 h), summary over AGCT cell lines (12 patient-derived, with or without KGN); type: cell-based, human; conditions: median over AGCT cell lines; read-out: median IC50 in monotherapy
Procedure: (§1) Cell lines were seeded at a density of 500 cells/well in 40 uL in 384-well plates (Corning, NY, USA) with the Multidrop™ cell dispenser (Thermo Fischer Scientific, Waltham, MA, USA) and sealed with Breathe-Easy® membrane (Sigma-Aldrich, St. Louis, MO, USA) to prevent evaporation. The SVOG-3e line was seeded at 1000 cells/well due to contact-dependent growth requirements. For each cell line, three biological repeats and two technical repeats each were performed in order to ensure the validity of the drug screens. […] Subsequently, 11 drugs and 12 drug combinations were dispensed and all wells (excluding blanks and non-DMSO control wells) were normalized to 1% DMSO using the HP Tecan D300e Digital Dispenser (Hewlett-Packard, Palo Alto, CA, USA). All drugs were applied in linear concentration ranges (Table 2), including 16 data points to enable combination drug testing at constant ratios (Table 3). Next, the plates were covered with the Breathe-Easy membrane and incubated. After 72 h, the Multidrop dispensed 15 uL per well of Cell Titer Glo 2.0 (Thermo Fischer Scientific, Waltham, MA, USA) and plates were incubated in the dark for 10 min. After incubation, luminescence excitation was assessed in the Spectramax reader (Molecular Devices, San Jose, CA, USA) (top read, luminescence excitation at 500 nm) and raw data were processed in Microsoft Excel to subtract background luminescence. The Z-factor, a mathematical method used to quantify the quality of a drug screen based on the calculation of the separation band between the values of the positive and negative controls, was utilized to assess the quality of drug screens [54]. Screens with a Z-factor value of >0.5 were used for further analysis.
(§2) Overall cell survival (in %) was plotted against the drug concentration range of each drug (in log10[μM]) using GraphPad Prism 8.3.1. Values that exceeded 100% survival (within +20% biological deviation) were normalized to 100% survival. Similarly, values below 0% cell survival (within −20% biological deviation) were normalized to 0% survival. Values exceeding this deviation were excluded. Dose–response curves were obtained using the model “log(inhibitor) vs. variable slope (normalized response)” to fit the dose–response curves and R^2 values were used to indicate how well the model fit the data (Supplementary Materials Figures S4 and S5). […] The maximum plasma concentration (Cmax) and the plasma concentration at steady state (Css) were used as toxicity thresholds. The Cmax was utilized for drugs in which short, high-dosage time courses are required, while the Css was used for maintenance therapy regimes such as anti-hormonal treatment. […] The IC50 values were calculated based on the Chou–Talalay method using Compusyn software [55]. For anti-hormonal treatment, mostly provided as maintenance therapy, we used IC10 values in addition to the IC50.
(§3) In addition to the 11 monotherapies, 12 drug combinations were tested (Table 3) simultaneously with the individual drug treatments in the same 384-well plate. […] Synergy was evaluated using the mass action law, a systematic analysis assessing dose–response dynamics in a cost-effective manner [56, 57]. The combination index (CI) was used to indicate antagonistic (CI > 1) additive (CI = 1) and synergistic (CI < 1) effects [55].

[1] = cited from earlier work
[2] = test system: KGN cells (AGCT cell line); assay: Cell viability drug screen (Cell Titer Glo 2.0, 72 h), mono- and combination therapy, KGN
Procedure: KGN was cultured in conditions identical to AGCT-patient-derived cell lines.
(§4) Cell lines were seeded at a density of 500 cells/well in 40 uL in 384-well plates (Corning, NY, USA) with the Multidrop™ cell dispenser (Thermo Fischer Scientific, Waltham, MA, USA) and sealed with Breathe-Easy® membrane (Sigma-Aldrich, St. Louis, MO, USA) to prevent evaporation. The SVOG-3e line was seeded at 1000 cells/well due to contact-dependent growth requirements. For each cell line, three biological repeats and two technical repeats each were performed in order to ensure the validity of the drug screens. […] Subsequently, 11 drugs and 12 drug combinations were dispensed and all wells (excluding blanks and non-DMSO control wells) were normalized to 1% DMSO using the HP Tecan D300e Digital Dispenser (Hewlett-Packard, Palo Alto, CA, USA). All drugs were applied in linear concentration ranges (Table 2), including 16 data points to enable combination drug testing at constant ratios (Table 3). Next, the plates were covered with the Breathe-Easy membrane and incubated. After 72 h, the Multidrop dispensed 15 uL per well of Cell Titer Glo 2.0 (Thermo Fischer Scientific, Waltham, MA, USA) and plates were incubated in the dark for 10 min. After incubation, luminescence excitation was assessed in the Spectramax reader (Molecular Devices, San Jose, CA, USA) (top read, luminescence excitation at 500 nm) and raw data were processed in Microsoft Excel to subtract background luminescence. […] Screens with a Z-factor value of >0.5 were used for further analysis.
(§5) Overall cell survival (in %) was plotted against the drug concentration range of each drug (in log10[μM]) using GraphPad Prism 8.3.1. Values that exceeded 100% survival (within +20% biological deviation) were normalized to 100% survival. Similarly, values below 0% cell survival (within −20% biological deviation) were normalized to 0% survival. Values exceeding this deviation were excluded. Dose–response curves were obtained using the model “log(inhibitor) vs. variable slope (normalized response)” to fit the dose–response curves and R^2 values were used to indicate how well the model fit the data (Supplementary Materials Figures S4 and S5). […] The IC50 values were calculated based on the Chou–Talalay method using Compusyn software [55]. For anti-hormonal treatment, mostly provided as maintenance therapy, we used IC10 values in addition to the IC50.

[3] = test system: GCPA028 T1.II patient-derived AGCT cell line; assay: Cell viability drug screen (Cell Titer Glo 2.0, 72 h), mono- and combination therapy, GCPA028
Procedure: as §4, §2, §3

[4] = test system: GCPA007 T2.I patient-derived AGCT cell line; assay: Cell viability drug screen (Cell Titer Glo 2.0, 72 h), mono- and combination therapy, GCPA007T2.I; conditions: GCPA007T2I
Procedure: as §4, §2, §3

[5] = test system: GCPA096 T1.I patient-derived AGCT cell line; assay: Cell viability drug screen (Cell Titer Glo 2.0, 72 h), mono- and combination therapy, GCPA096T1.I; conditions: GCPA096T1I
Procedure: (§6) Cell lines were seeded at a density of 500 cells/well in 40 uL in 384-well plates (Corning, NY, USA) with the Multidrop™ cell dispenser (Thermo Fischer Scientific, Waltham, MA, USA) and sealed with Breathe-Easy® membrane (Sigma-Aldrich, St. Louis, MO, USA) to prevent evaporation. […] For each cell line, three biological repeats and two technical repeats each were performed in order to ensure the validity of the drug screens. […] Subsequently, 11 drugs and 12 drug combinations were dispensed and all wells (excluding blanks and non-DMSO control wells) were normalized to 1% DMSO using the HP Tecan D300e Digital Dispenser (Hewlett-Packard, Palo Alto, CA, USA). […] Next, the plates were covered with the Breathe-Easy membrane and incubated. After 72 h, the Multidrop dispensed 15 uL per well of Cell Titer Glo 2.0 (Thermo Fischer Scientific, Waltham, MA, USA) and plates were incubated in the dark for 10 min. After incubation, luminescence excitation was assessed in the Spectramax reader (Molecular Devices, San Jose, CA, USA) (top read, luminescence excitation at 500 nm) and raw data were processed in Microsoft Excel to subtract background luminescence. The Z-factor, a mathematical method used to quantify the quality of a drug screen based on the calculation of the separation band between the values of the positive and negative controls, was utilized to assess the quality of drug screens [54]. Screens with a Z-factor value of >0.5 were used for further analysis.
as §5, §3

[6] = test system: GCPA096 T1.V patient-derived AGCT cell line; assay: Cell viability drug screen (Cell Titer Glo 2.0, 72 h), mono- and combination therapy, GCPA096T1.V; conditions: GCPA096T1V
Procedure: as §4, §2, §3

[7] = test system: GCPA113 T1.I patient-derived AGCT cell line; assay: Cell viability drug screen (Cell Titer Glo 2.0, 72 h), mono- and combination therapy, GCPA113T1.I; conditions: GCPA113T1I
Procedure: as §6, §5, §3

[8] = test system: GCPA007 T2.IV patient-derived AGCT cell line; assay: Cell viability drug screen (Cell Titer Glo 2.0, 72 h), mono- and combination therapy, GCPA007T2.IV; conditions: GCPA007T2IV
[9] = test system: GCPA096 T1.II patient-derived AGCT cell line; assay: Cell viability drug screen (Cell Titer Glo 2.0, 72 h), mono- and combination therapy, GCPA096T1.II; conditions: GCPA096T1II
Procedure: as §4, §2, §3

[10] = test system: GCPA096 T1.XV patient-derived AGCT cell line; assay: Cell viability drug screen (Cell Titer Glo 2.0, 72 h), mono- and combination therapy, GCPA096T1.XV; conditions: GCPA096T1XV
Procedure: as §1, §2, §3

[11] = test system: GCPA108 T3.IV patient-derived AGCT cell line; assay: Cell viability drug screen (Cell Titer Glo 2.0, 72 h), mono- and combination therapy, GCPA108T3.IV; conditions: GCPA108T3IV
Procedure: as §1, §2, §3

[12] = test system: GCPA113 T1.II patient-derived AGCT cell line; assay: Cell viability drug screen (Cell Titer Glo 2.0, 72 h), mono- and combination therapy, GCPA113T1.II; conditions: GCPA113T1II
Procedure: as §6, §5, §3

[13] = test system: GCPA096 T1.XVI patient-derived AGCT cell line; assay: Cell viability drug screen (Cell Titer Glo 2.0, 72 h), mono- and combination therapy, GCPA096T1.XVI; conditions: GCPA096T1XVI
Procedure: as §4, §2, §3

[14] = test system: GCPA113 T1.III patient-derived AGCT cell line; assay: Cell viability drug screen (Cell Titer Glo 2.0, 72 h), mono- and combination therapy, GCPA113T1.III; conditions: GCPA113T1III
Procedure: as §6, §5, §3

[15] = drug within Carbo+Pacli+6thio2dG
[16] = drug within Carbo+Pacli+Alpelisib
[17] = read-out: IC50 in monotherapy, monotherapy
[18] = in combination Carbo+Pacli+6thio2dG
[19] = in combination Carbo+Pacli+Alpelisib
[20] = read-out: IC50 in monotherapy, single drug, 72 h, unit not given (compared with Cmax/Css in uM)

N.N.O=C([O-])C1(C(=O)[O-])CCC1.[Pt+2] [Carboplatin]
pIC50 (AGCT cell lines): 3.46
Cmax/Css plasma (Log 10) ([1]; human maximum or steady state plasma concentration, log10 of the uM value): 2.13 Log 10
Cmax/Css plasma (Log 10) ([1]; human plasma Cmax/Css, log10 of uM value, from phase I/II clinical trials): 2.13 Log 10
Cmax/Css plasma (Log 10) ([1]; human plasma maximum/steady state concentration, ref phase I/II clinical trials): 2.13 Log 10
Cmax/Css plasma (Log 10) ([1]; human plasma, maximum or steady state concentration, log10 of uM value): 2.13
Cmax/Css plasma (Log 10) ([1]; human plasma, log10 of uM, phase I/II trials): 2.13
Cmax ([1]; read-out: Cmax (maximum drug concentration achieved in plasma), human plasma, phase I/II studies): 135 µM
Cmax ([1]; read-out: Cmax/Css plasma, human maximum or steady state plasma concentration): 135 µM
Cmax ([1]; read-out: Cmax/Css plasma, human plasma Cmax/Css, from phase I/II clinical trials): 135 µM
Cmax ([1]; read-out: Cmax/Css plasma, human plasma maximum/steady state concentration, ref phase I/II clinical trials): 135 µM
Cmax ([1]; read-out: Cmax/Css plasma, human plasma, maximum or steady state concentration): 135 µM
Cmax ([1]; read-out: Cmax/Css plasma, human plasma, phase I/II trials): 135 µM
DRI (Fa=0,5) ([2]; drug within Carbo+Pacli): 5.1507
DRI (Fa=0,5) [2, 15]: 2.192
DRI (Fa=0,5) [2, 16]: 26.6538
pIC50 [2, 17]: 3.53
DRI (Fa=0,5) ([3]; GCPA028, in combination Carbo+Pacli): 0.51
DRI (Fa=0,5) ([3]; GCPA028, in combination Carbo+Pacli+6thio2dG): 0.29
DRI (Fa=0,5) ([3]; GCPA028, in combination Carbo+Pacli+Alpelisib): 41.26
pIC50 ([3]; read-out: IC50 in monotherapy, GCPA028, monotherapy): < 3.30
DRI (Fa=0,5) ([4]; in Carbo+Pacli (10:1)): 4.425
DRI (Fa=0,5) ([4]; in Carbo+Pacli+6thio2dG (10:1:1)): 2.54
DRI (Fa=0,5) ([4]; in Carbo+Pacli+Alpelisib (10:1:2)): 230.67
pIC50 ([4]; read-out: IC50 in monotherapy, cell viability 72 h after drug application): < 3.30
DRI (Fa=0,5) ([5]; in combination Carbo+Pacli): 1.8
DRI (Fa=0,5) [5, 18]: 2.92
DRI (Fa=0,5) [5, 19]: 7.45
pIC50 [5, 17]: 3.59
DRI (Fa=0,5) ([6]; drug within Carbo+Pacli): 1.19
DRI (Fa=0,5) [6, 15]: 4.7
DRI (Fa=0,5) [6, 16]: 17.09
IC50 [6, 20]: > 500 µM
DRI (Fa=0,5) ([7]; in Carbo+Pacli): 1.12
DRI (Fa=0,5) ([7]; in Carbo+Pacli+6thio2dG): 2.55
DRI (Fa=0,5) ([7]; in Carbo+Pacli+Alpelisib): 32.56
pIC50 [7, 17]: < 3.30
DRI (Fa=0,5) ([8]; in combination Carbo+Pacli): 2.73
DRI (Fa=0,5) [8, 18]: 1.36
DRI (Fa=0,5) [8, 19]: 37.92
pIC50 [8, 17]: < 3.30
DRI (Fa=0,5) ([9]; drug within Carbo+Pacli): 1.11
DRI (Fa=0,5) [9, 15]: 2.3
DRI (Fa=0,5) [9, 16]: 5.75
IC50 [9, 20]: 168 µM
DRI (Fa=0,5) ([10]; drug within Carbo+Pacli): 0.85
DRI (Fa=0,5) [10, 15]: 2.35
DRI (Fa=0,5) [10, 16]: 7.71
IC50 [10, 20]: 265 µM
DRI (Fa=0,5) ([11]; in Carbo+Pacli): 1
DRI (Fa=0,5) ([11]; in Carbo+Pacli+6thio2dG): 0.7515
DRI (Fa=0,5) ([11]; in Carbo+Pacli+Alpelisib): 9.921
DRI (Fa=0,5) ([12]; drug within Carbo+Pacli): 1.06
DRI (Fa=0,5) [12, 15]: 1.33
DRI (Fa=0,5) [12, 16]: 4.67
pIC50 [12, 17]: 3.56
DRI (Fa=0,5) ([13]; in Carbo+Pacli): 0.64
DRI (Fa=0,5) ([13]; in Carbo+Pacli+6thio2dG): 0.59
DRI (Fa=0,5) ([13]; in Carbo+Pacli+Alpelisib): 2.39
pIC50 [13, 17]: 3.84
DRI (Fa=0,5) ([14]; drug within Carbo+Pacli): 1.76
DRI (Fa=0,5) [14, 15]: 1.97
DRI (Fa=0,5) [14, 16]: 35.75
pIC50 [14, 17]: 3.45
